# Data reported in patent publication US10308689B2, “Dengue virus (DV) polypeptide sequences, T cell epitopes and methods and uses thereof” (LA JOLLA INSTITUTE FOR ALLERGY AND IMMUNOLOGY, priority 2010, dated 2019).
# Tested on: PBMC of healthy adult blood donors from Colombo, Sri Lanka
# Test: Ex vivo IFNγ ELISPOT, HLA-matched PBMC of Sri Lankan blood donors
# Assay type: cell-based, human
# Design: Total Response per epitope: unit not given here
# Conditions: for # donors responded: number of donors responding to the epitope
# [1] = restricting HLA allele and serotype as given
# [2] = total over responding donors, restricting HLA allele and serotype as given
# [3] = IFNγ ELISPOT response summed over responding donors, per epitope
# [4] = HLA-matched PBMC, proteome-wide screen
# [5] = HLA allele, supertype and serotype
# [6] = summed IFNγ ELISPOT response per epitope, HLA allele and serotype as given
smiles,measurement,setting,value
CC[C@H](C)[C@H](NC(=O)[C@H](CO)NC(=O)[C@H](CCCCN)NC(=O)[C@H](CCCNC(=N)N)NC(=O)CNC(=O)[C@H](CO)NC(=O)[C@H](C)NC(=O)[C@@H](N)Cc1ccccc1)C(=O)N[C@H](C(=O)N[C@@H](CC(C)C)C(=O)O)[C@@H](C)O,# donors responded,[1],1
same,Total Response per epitope,[2],26.7
CC[C@H](C)[C@H](NC(=O)[C@H](C)NC(=O)CNC(=O)[C@@H](N)Cc1ccccc1)C(=O)N[C@@H](Cc1ccc(O)cc1)C(=O)NCC(=O)N[C@@H](C)C(=O)N[C@@H](C)C(=O)N[C@@H](Cc1ccccc1)C(=O)O,# donors responded,[1],3
same,Total Response per epitope,[2],798.3
CC[C@H](C)[C@H](NC(=O)[C@@H]1CCCN1C(=O)[C@H](C)NC(=O)[C@H](CC(N)=O)NC(=O)[C@H](CO)NC(=O)[C@H](CCC(N)=O)NC(=O)[C@@H]1CCCN1C(=O)[C@@H](N)Cc1ccccc1)C(=O)N[C@@H](CCSC)C(=O)N[C@@H](CC(=O)O)C(=O)O,# donors responded,[1],4
same,Total Response per epitope,[2],716.7
CC(C)C[C@H](NC(=O)[C@H](CO)NC(=O)[C@H](CC(N)=O)NC(=O)[C@H](CCC(=O)O)NC(=O)[C@H](CCCNC(=N)N)NC(=O)[C@H](CO)NC(=O)[C@@H](N)Cc1ccccc1)C(=O)N[C@@H](CO)C(=O)NCC(=O)N[C@H](C(=O)O)C(C)C,# donors responded,[1],1
same,Total Response per epitope,[2],101.7
CC[C@H](C)[C@H](NC(=O)[C@H](C)NC(=O)[C@H](C)NC(=O)[C@H](CCSC)NC(=O)[C@@H](NC(=O)[C@@H](NC(=O)[C@@H](N)Cc1ccccc1)[C@@H](C)O)[C@@H](C)CC)C(=O)N[C@@H](CC(C)C)C(=O)N[C@@H](C)C(=O)N[C@@H](Cc1ccc(O)cc1)C(=O)O,# donors responded,[1],2
same,Total Response per epitope,[2],675.0
CC[C@H](C)[C@H](NC(=O)[C@H](C)NC(=O)[C@H](CC(C)C)NC(=O)[C@H](CS)NC(=O)[C@H](CC(C)C)NC(=O)[C@@H](NC(=O)CNC(=O)[C@H](CCSC)NC(=O)[C@@H](NC(=O)[C@@H](N)Cc1ccccc1)[C@@H](C)O)C(C)C)C(=O)O,# donors responded,[1],1
same,Total Response per epitope,[2],58.3
CSCC[C@H](NC(=O)[C@@H](NC(=O)[C@@H](N)Cc1ccccc1)[C@@H](C)O)C(=O)N[C@@H](CCCNC(=N)N)C(=O)N[C@@H](Cc1c[nH]cn1)C(=O)N[C@@H](CCCCN)C(=O)N[C@@H](CCCCN)C(=O)N[C@@H](C)C(=O)N[C@H](C(=O)N[C@@H](Cc1ccc(O)cc1)C(=O)O)[C@@H](C)O,# donors responded,[1],4
same,T cell response [SFC],"per epitope, ex vivo IFNγ SFC/10^6 PBMC",1723 SFC
same,# of responders,"responding donors, HLA allele(s)",4
same,Total Response per epitope,[2],1723.3
CC[C@H](C)[C@H](NC(=O)[C@@H]1CCCN1C(=O)[C@H](CCC(=O)O)NC(=O)[C@H](CCC(=O)O)NC(=O)[C@H](Cc1c[nH]cn1)NC(=O)CNC(=O)[C@@H]1CCCN1C(=O)CN)C(=O)N1CCC[C@H]1C(=O)N[C@@H](CCSC)C(=O)O,# donors responded,[1],3
same,Total Response per epitope,[2],235.0
CC(C)C[C@H](NC(=O)[C@H](CCC(=O)O)NC(=O)[C@H](CC(C)C)NC(=O)[C@H](CCCCN)NC(=O)CNC(=O)[C@H](CC(C)C)NC(=O)[C@H](Cc1c[nH]cn1)NC(=O)[C@H](Cc1c[nH]c2ccccc12)NC(=O)[C@@H]1CCCN1C(=O)CN)C(=O)O,# donors responded,[1],2
same,Total Response per epitope,[2],495.0
CSCC[C@H](NC(=O)[C@H](CCC(=O)O)NC(=O)[C@H](CC(C)C)NC(=O)[C@H](CCCCN)NC(=O)CNC(=O)[C@H](CC(C)C)NC(=O)[C@H](Cc1c[nH]cn1)NC(=O)[C@H](Cc1c[nH]c2ccccc12)NC(=O)[C@@H]1CCCN1C(=O)CN)C(=O)O,# donors responded,[1],3
same,Total Response per epitope,[2],90.0
CC[C@H](C)[C@H](NC(=O)[C@@H](NC(=O)[C@H](Cc1ccccc1)NC(=O)CNC(=O)[C@@H]1CCCN1C(=O)[C@@H](N)Cc1c[nH]cn1)[C@@H](C)O)C(=O)N[C@@H](CC(C)C)C(=O)N[C@@H](C)C(=O)N[C@@H](CC(C)C)C(=O)N[C@@H](Cc1ccccc1)C(=O)O,# donors responded,[1],9
same,Total Response per epitope,[2],3763.3
CC[C@H](C)[C@H](NC(=O)[C@H](CCC(=O)O)NC(=O)[C@H](Cc1ccccc1)NC(=O)[C@@H]1CCCN1C(=O)[C@@H](NC(=O)[C@H](CCCCN)NC(=O)[C@H](CS)NC(=O)[C@@H]1CCCN1C(=O)[C@@H](N)CO)[C@@H](C)CC)C(=O)N[C@@H](CCSC)C(=O)O,Total Response per epitope,[3],1156.0
same,# donors responded,[4],5
CC[C@H](C)[C@H](NC(=O)[C@@H](NC(=O)[C@@H](NC(=O)[C@H](CC(N)=O)NC(=O)[C@H](Cc1c[nH]c2ccccc12)NC(=O)[C@H](Cc1ccccc1)NC(=O)[C@H](CCCCN)NC(=O)CNC(=O)[C@@H]1CCCN1C(=O)[C@@H](N)CO)[C@@H](C)O)[C@@H](C)O)C(=O)O,Total Response per epitope,[3],826.7
same,# donors responded,[4],3
CC[C@H](C)[C@H](NC(=O)[C@@H](NC(=O)[C@@H]1CCCN1C(=O)[C@@H](N)CO)[C@@H](C)CC)C(=O)N[C@@H](CC(N)=O)C(=O)N[C@@H](CCCNC(=N)N)C(=O)N[C@@H](CCC(=O)O)C(=O)NCC(=O)N[C@@H](CCCCN)C(=O)N[C@H](C(=O)O)C(C)C,Total Response per epitope,[3],106.7
same,# donors responded,[4],1
CC[C@H](C)[C@H](NC(=O)[C@H](CO)NC(=O)[C@H](CC(C)C)NC(=O)[C@@H](NC(=O)[C@@H]1CCCN1C(=O)[C@@H](N)CO)[C@@H](C)CC)C(=O)N[C@H](C(=O)N[C@H](C(=O)N[C@@H](CO)C(=O)N[C@@H](CCC(=O)O)C(=O)O)[C@@H](C)CC)[C@@H](C)O,Total Response per epitope,[3],1068.3
same,# donors responded,[4],6
C[C@H](NC(=O)[C@H](CCCNC(=N)N)NC(=O)CNC(=O)CNC(=O)[C@H](C)NC(=O)[C@H](CCC(=O)O)NC(=O)[C@H](C)NC(=O)[C@@H](N)[C@@H](C)O)C(=O)N[C@@H](Cc1ccc(O)cc1)C(=O)O,Total Response per epitope,[3],371.7
same,# donors responded,[4],4
CC[C@H](C)[C@H](NC(=O)[C@H](C)NC(=O)[C@H](C)NC(=O)[C@H](CCSC)NC(=O)[C@@H](NC(=O)[C@@H](N)[C@@H](C)O)[C@@H](C)CC)C(=O)N[C@@H](CC(C)C)C(=O)N[C@@H](C)C(=O)N[C@@H](Cc1ccc(O)cc1)C(=O)O,# donors responded,[1],1
same,Total Response per epitope,[2],20.0
CC(C)[C@H](NC(=O)[C@H](CCCNC(=N)N)NC(=O)[C@H](CCC(N)=O)NC(=O)[C@H](CCC(N)=O)NC(=O)CNC(=O)[C@H](Cc1ccccc1)NC(=O)[C@@H]1CCCN1C(=O)[C@@H](N)[C@@H](C)O)C(=O)N[C@@H](Cc1ccccc1)C(=O)O,# donors responded,[5],3
same,Total Response per epitope,[6],438.3
CC[C@H](C)[C@H](NC(=O)[C@@H](NC(=O)[C@H](CC(=O)O)NC(=O)[C@H](CCSC)NC(=O)[C@@H](NC(=O)[C@H](C)NC(=O)CNC(=O)[C@H](CCCCN)NC(=O)[C@@H]1CCCN1C(=O)[C@@H](N)[C@@H](C)O)C(C)C)[C@@H](C)CC)C(=O)O,# donors responded,[5],1
same,Total Response per epitope,[6],105.0
CC(C)C[C@H](NC(=O)[C@H](CCC(N)=O)NC(=O)[C@H](CC(N)=O)NC(=O)[C@H](CC(=O)O)NC(=O)[C@H](CCC(N)=O)NC(=O)[C@@H]1CCCN1C(=O)[C@@H](N)[C@@H](C)O)C(=O)N[C@H](C(=O)N[C@@H](Cc1ccc(O)cc1)C(=O)O)[C@@H](C)O,# donors responded,[5],1
same,Total Response per epitope,[6],75.0
CC[C@H](C)[C@H](NC(=O)[C@@H](NC(=O)[C@H](CC(=O)O)NC(=O)[C@H](CCSC)NC(=O)[C@@H](NC(=O)[C@@H](NC(=O)CNC(=O)[C@H](CCCNC(=N)N)NC(=O)[C@@H]1CCCN1C(=O)[C@@H](N)[C@@H](C)O)[C@@H](C)O)C(C)C)[C@@H](C)CC)C(=O)O,# donors responded,[5],1
same,Total Response per epitope,[6],331.7
CC[C@H](C)[C@H](NC(=O)[C@H](C)NC(=O)[C@H](Cc1ccc(O)cc1)NC(=O)[C@H](Cc1c[nH]cn1)NC(=O)[C@@H](NC(=O)[C@@H](NC(=O)[C@H](CC(C)C)NC(=O)[C@H](CC(C)C)NC(=O)[C@H](CC(C)C)NC(=O)[C@@H](N)C(C)C)C(C)C)[C@@H](C)O)C(=O)O,# donors responded,[5],1
same,Total Response per epitope,[6],40.0
CSCC[C@H](NC(=O)[C@H](CC(N)=O)NC(=O)[C@@H](NC(=O)[C@H](CO)NC(=O)[C@H](CO)NC(=O)[C@@H](N)C(C)C)C(C)C)C(=O)N[C@H](C(=O)N[C@@H](CO)C(=O)N[C@@H](CCCNC(=N)N)C(=O)N[C@@H](CC(C)C)C(=O)O)C(C)C,# donors responded,[5],1
same,Total Response per epitope,[6],421.7
CC(C)C[C@H](NC(=O)[C@H](CCCNC(=N)N)NC(=O)[C@H](Cc1c[nH]cn1)NC(=O)[C@H](CC(=O)O)NC(=O)[C@H](CS)NC(=O)[C@H](CC(C)C)NC(=O)[C@H](CCC(N)=O)NC(=O)[C@@H](NC(=O)[C@H](Cc1ccc(O)cc1)NC(=O)[C@@H](N)C(C)C)[C@@H](C)O)C(=O)O,# donors responded,[5],1
same,Total Response per epitope,[6],21.7
C[C@H](NC(=O)[C@@H](N)Cc1c[nH]c2ccccc12)C(=O)N[C@@H](Cc1ccc(O)cc1)C(=O)N[C@@H](Cc1c[nH]cn1)C(=O)NCC(=O)N[C@@H](CO)C(=O)N[C@@H](Cc1ccc(O)cc1)C(=O)N[C@@H](CCC(=O)O)C(=O)N[C@H](C(=O)O)[C@@H](C)O,# donors responded,[5],3
same,Total Response per epitope,[6],1220.0
CSCC[C@H](NC(=O)[C@H](CC(C)C)NC(=O)[C@H](CO)NC(=O)[C@H](Cc1c[nH]c2ccccc12)NC(=O)[C@H](CCSC)NC(=O)[C@H](CCC(N)=O)NC(=O)[C@H](C)NC(=O)[C@@H](N)Cc1ccc(O)cc1)C(=O)N[C@@H](Cc1ccc(O)cc1)C(=O)O,Total Response per epitope,[3],38.3
same,# donors responded,[4],1
CSCC[C@H](NC(=O)[C@H](CCC(N)=O)NC(=O)[C@H](C)NC(=O)[C@@H](N)Cc1ccc(O)cc1)C(=O)N[C@@H](Cc1c[nH]c2ccccc12)C(=O)N[C@@H](CO)C(=O)N[C@@H](CC(C)C)C(=O)N[C@@H](CCSC)C(=O)N[C@@H](Cc1ccc(O)cc1)C(=O)N[C@@H](Cc1ccccc1)C(=O)O,Total Response per epitope,[3],33.3
same,# donors responded,[4],1
CC(C)C[C@H](NC(=O)CNC(=O)[C@H](C)NC(=O)CNC(=O)[C@H](C)NC(=O)[C@H](CC(C)C)NC(=O)[C@@H](N)Cc1ccc(O)cc1)C(=O)N[C@@H](C)C(=O)N[C@@H](Cc1ccccc1)C(=O)O,# donors responded,[5],3
same,Total Response per epitope,[6],340.0
